# Measured values: patent publication US4942226A, “Halogenated pyrimidine nucleosides and their derivatives” (Merck & Co., Inc., priority 1988, dated 1990)
# Counter-ions that a name gives are not always drawn. Like-named read-outs stand apart in the source and are kept apart here.
# Test: Determination of Ester Half-lives (conversion of ester to alcohol in phosphate buffer at 37°, HPLC)
# Format: physicochemical
# Conditions: read-out: t1/2 (time required for 50% conversion of ester to alcohol)
# Protocol: Determination of Ester Half-lives
# Two mL of phosphate buffer preheated to 37° were added to approximately 0.5 mg of the ester dihydrochloride. The resulting solution was heated at 37° while 20 μL samples were removed at intervals and injected directly into the HPLC injection port.
# Unreacted ester and 5-halo-2'-deoxyuridine concentrations were determined by HPLC analysis on a C-18 reverse phase column using a gradient of 98% pH 2.4 phosphoric acid--2% acetonitrile to 70% pH 2.4 phosphoric acid--30% acetonitrile over 10 minutes. The UV detector was set at 280 nm. The half-life (t1/2) is the time required for 50% conversion of ester to alcohol.
"half-life (pH 6.8, 37°) [min]","half-life (pH 7.4, 37°) [min]",Compound
32,26,"CCNCCNCC(=O)O[C@H]1C[C@H](n2cc(Br)c(=O)[nH]c2=O)O[C@@H]1CO [Example 1, 5-Bromo-2'-deoxyuridine 3'-N-(2-Ethylaminoethyl)-glycyl Ester Dihydrochloride]"
47,29,"O=C(CNCCNCCC1CCCCC1)O[C@H]1C[C@H](n2cc(Br)c(=O)[nH]c2=O)O[C@@H]1CO [Example 2, 5-Bromo-2'-deoxyuridine 3'-[N-(2-(2-Cyclohexylethylamino)ethyl)glycyl]esterDihydrochloride]"
35,22,"O=C(CNCCNCCC1CCCCC1)OC[C@H]1O[C@@H](n2cc(Br)c(=O)[nH]c2=O)C[C@@H]1O [Example 3, 5-Bromo-2'-deoxyuridine 5'-N-(2-(2-cyclohexylethylamino)ethyl]glycyl Ester Dihydrochloride]"
